# Laboratory results: US20250120928A1 (University of Maryland, Baltimore, priority 2021, published 2025)
# “Also recorded” adds a separate entry of the source.
# Tested on: LPS-stimulated bone marrow macrophages (BMMØ)
# Assay: BMMØ cytokine secretion following LPS stimulation (ELISA, Luminex)
# Assay type: cell-based, C57BL/6J mice
# Procedure: (§1) Three hours later, cells were stimulated with 100 ng/mL LPS. After 48 hours, cell culture supernatants were collected and analyzed by enzyme-linked immunosorbent assays (ELISA) (BioLegend, San Diego, CA) to measure murine IL-6 and TNFα. MAGPIX Luminex bead-based multiplex ELISA (Thermo Fisher Scientific, Waltham, MA) measured for 7 various cytokines and chemokines, and data were analyzed using the Luminex xPONENT software (Millipore) as per manufacturer's instructions. The 7-plex panel included murine IFNβ, IL-10, IL-6, IL-1β, MCP-1 (CCL2), TNFα, and GROα (CXCL1).
# as §1, with “After” for “Three hours later, cells were stimulated with 100 ng/mL LPS. After”, “(Milli-pore)” for “(Millipore)”, “TL-6,” for “IL-6,”
# [1] = 0-30 μM for 3 hours, then LPS 100 ng/mL 48 hours, ELISA
# [2] = 10 μM, 3 hours before 48-hour LPS
# [3] = 10 μM, 3 hours before 48-hour LPS, Luminex, relative to LPS control
structure (smiles),measurement,setting,value
"O=C(CCCCCCC(=O)Nc1ccc(CO)cc1)NO [SAHA-OH, N^1-hydroxy-N^8-(4-(hydroxymethyl)phenyl)octanediamide]",IL-6 cytokine secretion,[1],concentration-dependent reduction
same,TNFα cytokine secretion,[1],concentration-dependent reduction
same,IL-6 secretion,[2],less effective than SAHA; also recorded: only moderately suppressed
same,MCP-1 cytokine secretions,[2],non-significantly affected
same,IFNβ cytokine levels,[3],similarly suppressed cytokine levels compared to SAHA
same,IL-1β cytokine levels,[3],did not affect IL-1β (FIG. 8B) cytokine levels as effectively as 10 μM SAHA
same,TNFα cytokine levels,[3],similarly suppressed cytokine levels compared to SAHA
same,GROα (CXCL1) secretion,"10 μM, Luminex, compared to LPS or SAHA-treated BMMØs",significant upregulation
